Experimental data published in patent US10577373B2, “TYK2 inhibitors and uses thereof” (Nimbus Lakshmi, Inc., priority 2017, dated 2020).
Like-named read-outs stand apart in the source and are kept apart here.

Tests used:
[1] = system: GM-CSF induced STAT5 phosphorylation mediated by the JAK2/JAK2 homdimeric complex; test: GM-CSF Induced pSTAT5 in Human PBMC
From the text: Human PBMC are isolated from buffy coat and are stored frozen for assays as needed.

[2] = system: IL-12 induced STAT4 phophorylation mediated by Tyk2/JAK2 (heterodimeric complex); test: IL-12 Induced pSTAT4 in Human PBMC; format: cell-based; conditions: 1.7 ng/mL IL-12
From the text: The IL-12 Induced pSTAT4 assay evaluates the inhibition of IL-12 induced STAT4 phophorylation mediated by Tyk2/JAK2 (heterodimeric complex).

[3] = Homo sapiens, PBMC, 20 min, read-out: PBMC_GMCSF_pSTAT5 IC50, human PBMC, GM-CSF 5 ng/mL for 20 minutes, pSTAT5
[4] = read-out: PBMC_GMCSF_pSTAT5 IC50, human PBMC, GM-CSF 5 ng/mL for 20 minutes, pSTAT5

Row | IC50 [1, 3] [nM] | IC50 [2] [nM] | IC50 [1, 4] [nM] | SMILES | IC50 ([1]; Homo sapiens, PBMC, 20 min, read-out: PBMC_GMCSF_pSTAT5 IC50) [nM]
1 | > 50000 | < 100 |  | CNc1cc(Nc2cc(F)cnc2OC2CC2)nc2c(C(=O)NC3CCC3)cnn12 [I-276] | 
2 | > 50000 | < 100 |  | CNc1cc(Nc2cccn([C@@H]3CCC[C@H](OC)C3)c2=O)nc2c(C(=O)NCC(C)(C)CO)cnn12 [I-951] | 
3 | > 50000 | < 100 |  | CNc1cc(-c2cn(C(C)C)c3ncc(C)cc23)nc2c(C(N)=O)cnn12 [I-255] | 
4 | > 2500 | < 100 |  | CNc1cc(Nc2cccn(C3CCOCC3)c2=O)nc2c(C(=O)N[C@H]3C[C@H]3F)cnn12 [I-330] | 
5 | > 50000 | < 100 |  | CNc1cc(Nc2cccn(-c3nc(C)co3)c2=O)nc2c(C(=O)N[C@@H]3CC[C@@H]3O)cnn12 [I-706] | 
6 | > 2500 | < 100 |  | CNc1cc(Nc2cccn(-c3ncc(C)s3)c2=O)nc2c(C(=O)N[C@H]3CC[C@@H]3O)cnn12 (stereo in doubt) [I-676, N-(2-hydroxycyclobutyl)-7-(methylamino)-5-((1-(5-methylthiazol-2-yl)-2-oxo-1,2-dihydropyridin-3-yl)amino)pyrazolo[1,5-a]pyrimidine-3-carboxamide] | 
7 | > 12500 | < 100 |  | CNc1cc(Nc2cc(Cl)cn([C@H]3CCCN(C)C3)c2=O)nc2c(C(=O)NC3CC3)cnn12 [I-820] | 
8 | > 50000 | < 100 |  | CNc1cc(Nc2cc(C)cc(F)c2)nc2c(C(=O)NC3CC3)cnn12 [I-6] | 
9 | > 50000 | < 100 |  | CNc1cc(Nc2cccn([C@@H]3CCC[C@H](OC)C3)c2=O)nc2c(C(=O)N[C@@H]3C[C@@H]3F)cnn12 [I-840] | 
10 | > 2500 | < 100 |  | CNc1cc(Nc2cccn([C@H]3CC[C@H](OC)CC3)c2=O)nc2c(C(=O)NCC(C)(C)CO)cnn12 [I-544] | 
11 | > 2500 | < 100 |  | CNc1cc(Nc2cccc([C@@H]3CCCOC3)n2)nc2c(C(=O)N[C@@H]3CC[C@H]3O)cnn12 [I-665] | 
12 |  | < 100 | > 12500 | CNc1cc(Nc2cccnc2OC)nc2c(C(=O)N[C@H]3CC[C@@H]3O)cnn12 [I-395] | 
13 | > 12500 | 100 to 500 |  | CNc1cc(Nc2cccn(-c3ccc(C(=O)N4CCCC4)cn3)c2=O)nc2c(C(=O)NC3CCC3)cnn12 [I-121] | 
14 | > 12500 | < 100 |  | CNc1cc(-c2cn(C(C)C)c3ncccc23)nc2c(C(=O)NC3CC3)cnn12 [I-223] | 
15 | > 2500 | < 100 |  | CNc1cc(Nc2cccn(-c3ccc(F)cc3)c2=O)nc2c(C(=O)N[C@H]3C[C@H]3F)cnn12 [I-132] | 
16 | > 50000 | < 100 |  | CNc1cc(Nc2cccnc2OC)nc2c(C(=O)NC3CCC3O)cnn12 (stereo not drawn) [I-390, N-(2-hydroxycyclobutyl)-5-((2-methoxypyridin-3-yl)amino)-7-(methylamino) pyrazolo[1,5-a]pyrimidine-3-carboxamide] | 
17 | > 50000 | < 100 |  | CNc1cc(Nc2cccn([C@H]3CC[C@H](OC)CC3)c2=O)nc2c(C(=O)N[C@H]3CC[C@H]3O)cnn12 [I-539] | 
18 | > 12500 | < 100 |  | CNc1cc(Nc2cccn(-c3cnn(CC4CCOCC4)c3)c2=O)nc2c(C(=O)N[C@H]3C[C@H]3F)cnn12 [I-407] | 
19 | > 50000 | < 100 |  | CNc1cc(Nc2cccnc2OC(C)C)nc2c(C(=O)N[C@H]3C[C@H]3F)cnn12 [I-147] | 
20 | > 50000 | < 100 |  | CNc1cc(Nc2cccnc2OC)nc2c(C(=O)NC[C@H](C)CO)cnn12 [I-483] | 
21 | > 12500 | < 100 |  | CNc1cc(-c2c[nH]c3c(C)cc(C)cc23)nc2c(C(N)=O)cnn12 [I-36, 5-(5,7-dimethyl-1H-indol-3-yl)-7-(methylamino)pyrazolo[1,5-a]pyrimidine-3-carboxamide] | 
22 | > 12500 | < 100 |  | CNc1cc(Nc2cccn(-c3ccc(F)cn3)c2=O)nc2c(C(=O)N[C@H]3C[C@H]3F)cnn12 [I-115] | 
23 |  | < 100 | > 2500 | CNc1cc(Nc2cccc3ocnc23)nc2c(C(=O)N[C@@H]3CC[C@@H]3O)cnn12 [I-770] | 
24 |  | < 100 | > 12500 | [2H]C([2H])([2H])Oc1ncccc1Nc1cc(NC)n2ncc(C(=O)N[C@H]3CC[C@H]3O)c2n1 (stereo in doubt) [I-399, N-((1 S,2R)-2-hydroxycyclobutyl)-5-((2-(methoxy-d3)pyridin-3-yl)amino)-7-(methylamino) pyrazolo[1,5-a]pyrimidine-3-carboxamide] | 
25 | > 12500 | 100 to 500 |  | CNc1cc(Nc2cccnc2OC(C)C)nc2c(C(N)=O)cnn12 [I-72] | 
26 | > 50000 | < 100 |  | CNc1cc(Nc2cc(Cl)cn(-c3ccc(C)nn3)c2=O)nc2c(C(=O)N[C@H]3C[C@H]3F)cnn12 [I-164] | 
27 | > 12500 | < 100 |  | CNc1cc(-c2cn(C(C)C)c3ncc(Cl)cc23)nc2c(C(N)=O)cnn12 [I-272, 5-(5-chloro-1-isopropyl-1H-pyrrolo[2,3-b]pyridin-3-yl)-7-(methylamino) pyrazolo[1,5-a]pyrimidine-3-carboxamide] | 

Row | IC50 [1, 3] [nM] | IC50 [2] [nM] | IC50 [1, 4] [nM] | SMILES | IC50 ([1]; Homo sapiens, PBMC, 20 min, read-out: PBMC_GMCSF_pSTAT5 IC50) [nM]
28 | > 2500 | < 100 |  | CNc1cc(Nc2cc(F)cn(-c3ccc(C)nn3)c2=O)nc2c(C(=O)N[C@H]3C[C@H]3F)cnn12 [I-198] | 
29 | > 50000 | < 100 |  | CNc1cc(Nc2cccn(C[C@@H]3CCCCO3)c2=O)nc2c(C(=O)NC3CC3)cnn12 [I-413] | 
30 | > 50000 | 100 to 500 |  | CNc1cc(Nc2cc(C)cnc2OC2CC2)nc2c(C(=O)NC3CC3)cnn12 [I-277] | 
31 | > 50000 | < 100 |  | CNc1cc(Nc2cccn(CCOC)c2=O)nc2c(C(=O)NC3CCC3)cnn12 [I-269] | 
32 | > 2500 | < 100 |  | CNc1cc(-c2cn(C(C)C)c3ncccc23)nc2c(C(N)=O)cnn12 [I-222, 5-(1-isopropyl-1H-pyrrolo[2,3-b]pyridin-3-yl)-7-(methylamino)pyrazolo[1,5-a]pyrimidine-3-carboxamide] | 
33 | > 2500 | < 100 |  | CNc1cc(Nc2cccc(-c3nccs3)c2Cl)nc2c(C(N)=O)cnn12 [I-16] | 
34 | > 12500 | < 100 |  | CNc1cc(Nc2cccc3ocnc23)nc2c(C(=O)N[C@H]3C[C@H]3F)cnn12 [I-592] | 
35 | > 50000 | < 100 |  | CNc1cc(Nc2cccc([C@H]3CCCOC3)n2)nc2c(C(=O)N[C@H]3C[C@H]3F)cnn12 [I-563] | 
36 | > 50000 | < 100 |  | [2H]C([2H])([2H])Oc1ncccc1Nc1cc(NC)n2ncc(C(=O)N[C@H]3CC[C@H](O)C3)c2n1 [I-500] | 
37 | > 50000 | < 100 |  | CNc1cc(Nc2cccn(C3CCCCC3)c2=O)nc2c(C(=O)N[C@@H]3CC[C@H]3O)cnn12 [I-943] | 
38 | > 12500 | < 100 |  | CNc1cc(Nc2cc(Cl)cn(-c3ccn(C4CC4)n3)c2=O)nc2c(C(=O)NC3CC3)cnn12 [I-331] | 
39 | > 12500 | < 100 |  | CNc1cc(Nc2cccnc2OCCOC)nc2c(C(=O)N[C@H]3C[C@H]3F)cnn12 [I-220] | 
40 | > 50000 | 100 to 500 |  | CNc1cc(Nc2cccc3ocnc23)nc2c(C(=O)N[C@H]3COC[C@H]3O)cnn12 [I-834] | 
41 | > 50000 | < 100 |  | CNc1cc(Nc2cccn(-c3ccn(C)n3)c2=O)nc2c(C(=O)NC3CCC3)cnn12 [I-139] | 
42 | > 50000 | < 100 |  | CNc1cc(Nc2cccn([C@H]3CC[C@](C)(OC)CC3)c2=O)nc2c(C(=O)N[C@@H]3CC[C@H]3OC)cnn12 [I-959] | 
43 | > 50000 | < 100 |  | CNc1cc(Nc2cc(Cl)cn([C@@H]3CCCN(C)C3)c2=O)nc2c(C(=O)NC3CC3)cnn12 [I-819] | 
44 | > 2500 | < 100 |  | CNc1cc(Nc2cccn(-c3ccc(F)cc3)c2=O)nc2c(C(=O)NC3CCC3)cnn12 [I-246] | 
45 |  | < 100 | > 50000 | CNc1cc(-c2cn(C(C)C)c3ncccc23)nc2c(C(=O)N[C@@H]3CC[C@H]3O)cnn12 (stereo in doubt) [I-586, N-((1R,2R)-2-hydroxycyclobutyl)-5-(1-isopropyl-1H-pyrrolo[2,3-b]pyridin-3-yl)-7-(methylamino)pyrazolo[1,5-a]pyrimidine-3-carboxamide] | 
46 | > 2500 | < 100 |  | CNc1cc(Nc2cccn([C@H]3CCCOC3)c2=O)nc2c(C(=O)NC3CCC3)cnn12 [I-354] | 
47 | > 50000 | < 100 |  | CNc1cc(Nc2cc(Cl)cn(C3CCCOC3)c2=O)nc2c(C(=O)N[C@H]3C[C@H]3F)cnn12 (stereo partly drawn) [I-693] | 
48 | > 50000 | < 100 |  | CNc1cc(-c2cn(C(C)C)c3ncccc23)nc2c(C(=O)N[C@@H]3CC[C@@H]3O)cnn12 [I-578] | 
49 | > 50000 | < 100 |  | CNc1cc(Nc2cc(C)cc(C)c2)nc2c(C(N)=O)cnn12 [I-2, 5-((3,5-dimethylphenyl)amino)-7-(methylamino)pyrazolo[1,5-a]pyrimidine-3-carboxamide] | 
50 | > 50000 | < 100 |  | CNc1cc(Nc2cccn3ccnc23)nc2c(C(=O)NC3CC3)cnn12 [I-891] | 
51 | > 50000 | < 100 |  | CNc1cc(Nc2cc(Cl)cn([C@H]3CCCOC3)c2=O)nc2c(C(=O)NC3CC3)cnn12 [I-782] | 
52 | > 2500 | < 100 |  | CNc1cc(Nc2cccnc2OC)nc2c(C(=O)NCC(C)(C)CO)cnn12 [I-346] | 
53 |  | < 100 | > 2500 | CNc1cc(Nc2cccn(-c3ncc(C)s3)c2=O)nc2c(C(=O)N[C@@H]3CC[C@@H]3O)cnn12 [I-677] | 

Row | SMILES | IC50 [1, 3] [nM] | IC50 [2] [nM] | IC50 [1, 4] [nM] | IC50 ([1]; Homo sapiens, PBMC, 20 min, read-out: PBMC_GMCSF_pSTAT5 IC50) [nM]
54 | CNc1cc(Nc2cccnc2OC)nc2c(C(=O)NOC(C)(C)C)cnn12 [I-612, N-(tert-butoxy)-5-((2-methoxypyridin-3-yl)amino)-7-(methylamino) pyrazolo[1,5-a]pyrimidine-3-carboxamide] |  | […] |  | > 50000
